Results reported in ChEMBL document CHEMBL5634151, “Anti-adipogenic action of a novel oxazole derivative through activation of AMPK pathway” (Eur J Med Chem, 2023).
Activity calls are given as the source filed them. The rule behind the calls is not given here.

Columns and labels:
[1] = tested on: 3T3-L1; experiment: Anti-adipogenic activity in MDI-cocktail differentiated mouse 3T3-L1 pre-adipocyte cells assessed as reduction in adipogenic differentiation at 5 uM measured after 0 to 7 days by Oil Red O staining based microscopic analysis; format: functional, cell-based; conditions: time 0-7 day
[2] = tested on: 3T3-L1; experiment: Inhibition of MDI-cocktail induced adipogenic differentiation in mouse 3T3-L1 pre-adipocyte cells assessed as reduction in FABP4 protein expression at 0.5 to 5 uM by Western blot analysis; format: functional, cell-based; conditions: dose 0.5-5 µM
[3] = tested on: 3T3-L1; experiment: Anti-adipogenic activity in MDI-cocktail differentiated mouse 3T3-L1 pre-adipocyte cells assessed as reduction in adipogenic differentiation at 5 uM measured after 5 to 7 days by Oil Red O staining based microscopic analysis; format: functional, cell-based; conditions: time 5-7 day
[4] = tested on: 3T3-L1; experiment: Anti-adipogenic activity in MDI-cocktail differentiated mouse 3T3-L1 pre-adipocyte cells assessed as inhibition of adipogenesis by Oil Red O staining based microscopic analysis; format: functional, cell-based
[5] = tested on: 3T3-L1; experiment: Inhibition of MDI-cocktail induced adipogenic differentiation in mouse 3T3-L1 pre-adipocyte cells assessed as reduction in CEBPalpha gene expression at 5 uM by qRT-PCR analysis; format: functional, cell-based
[6] = tested on: 3T3-L1; experiment: Inhibition of MDI-cocktail induced adipogenic differentiation in mouse 3T3-L1 pre-adipocyte cells assessed as reduction in PPARgamma protein expression at 0.5 to 5 uM by Western blot analysis; format: functional, cell-based; conditions: dose 0.5-5 µM
[7] = tested on: 3T3-L1; experiment: Cytotoxicity against mouse 3T3-L1 pre-adipocyte cells assessed as reduction in cell viability >20 uM incubated for 48 hrs by MTT assay; format: toxicity, cell-based; conditions: 3t3-l1, 48 h
[8] = tested on: 3T3-L1; experiment: Inhibition of MDI-cocktail induced adipogenic differentiation in mouse 3T3-L1 pre-adipocyte cells assessed as reduction in FABP4 gene expression at 5 uM by qRT-PCR analysis; format: functional, cell-based
[9] = tested on: 3T3-L1; experiment: Induction of mitochondrial membrane potential in mouse 3T3-L1 mature adipocytes assessed as increase in TMRE fluorescence at 1 to 5 uM incubated for 24 hrs by TMRE staining based fluorescence microscopic analysis; format: functional, cell-based; conditions: dose 1-5 µM
[10] = tested on: Syrian golden hamster; experiment: Anti-dyslipidaemic activity in high-fat diet induced Syrian golden hamster model assessed as assessed as reduction in serum LDL-cholesterol level at 25 to 50 mg/kg, po administered for 7 days; format: functional, organism-based; conditions: Mesocricetus auratus, dose 25-50 mg/kg, time 7.0 day
[11] = tested on: Syrian golden hamster; experiment: Anti-obesity activity in high-fat diet induced Syrian golden hamster model assessed as reduction in fat mass at 50 mg/kg, po administered for 7 days by 1H NMR spectroscopy-based Echo MRI system; format: functional, organism-based; conditions: Mesocricetus auratus, time 7.0 day
[12] = tested on: C3H 10T1/2; experiment: Inhibition of MDI-cocktail induced adipogenic differentiation in mouse C3H 10T1/2 cells assessed as inhibition of lipid accumulation by Oil Red O staining based microscopic analysis; format: functional, cell-based; conditions: dose 0.5-20 µM
[13] = tested on: 3T3-L1; experiment: Anti-adipogenic activity in MDI-cocktail differentiated mouse 3T3-L1 pre-adipocyte cells assessed as inhibition of adipogenesis at 20 uM by Oil Red O staining based microscopic analysis relative to control; format: functional
[14] = tested on: C3H 10T1/2; experiment: Anti-adipogenic activity in MDI-cocktail differentiated mouse C3H 10T1/2 cells assessed as reduction in adipogenic differentiation at 5 uM measured after 5 to 7 days by Oil Red O staining based microscopic analysis; format: functional, cell-based; conditions: time 5-7 day
[15] = tested on: C3H 10T1/2; experiment: Inhibition of MDI-cocktail induced adipogenic differentiation in mouse C3H 10T1/2 cells assessed as reduction in lipid bound stain absorbance at 0.5 to 25 uM by Oil Red O staining based microscopic analysis; format: functional, cell-based; conditions: dose 0.5-25 µM
[16] = tested on: Syrian golden hamster; experiment: Anti-dyslipidaemic activity in high-fat diet induced Syrian golden hamster model assessed as assessed as increase in serum HDL level at 25 to 50 mg/kg, po administered for 7 days; format: functional, organism-based; conditions: Mesocricetus auratus, dose 25-50 mg/kg, time 7.0 day
[17] = tested on: 3T3-L1; experiment: Induction of ATP production during early phase in MDI-cocktail differentiated mouse 3T3-L1 pre-adipocyte cells 5 uM incubated for 72 hrs by Seahorse XFp flux analyzer; format: functional, cell-based
[18] = tested on: 3T3-L1; experiment: Induction of mitochondrial respiration in MDI-cocktail differentiated mouse 3T3-L1 pre-adipocyte cells assessed as increase in oxygen consumption rate at 5 uM incubated for 72 hrs in presence of rotenone/antimycin A mixture by Seahorse XFp flux analyzer; format: functional, cell-based
[19] = tested on: 3T3-L1; experiment: Upregulation of CII-SDHB protein expression in mouse 3T3-L1 mature adipocytes at 1 to 5 uM incubated for 24 hrs by Western blot analysis; format: functional, cell-based; conditions: dose 1-5 µM
[20] = tested on: C3H 10T1/2; experiment: Anti-adipogenic activity in MDI-cocktail differentiated mouse C3H 10T1/2 cells assessed as reduction in adipogenic differentiation at 5 uM measured after 3 to 5 days by Oil Red O staining based microscopic analysis; format: functional, cell-based; conditions: time 3-5 day
[21] = tested on: Syrian golden hamster; experiment: Anti-dyslipidaemic activity in high-fat diet induced Syrian golden hamster model assessed as assessed as reduction in serum triglyceride level at 25 to 50 mg/kg, po administered for 7 days; format: functional, organism-based; conditions: Mesocricetus auratus, dose 25-50 mg/kg, time 7.0 day
[22] = tested on: 3T3-L1; experiment: Induction of cell cycle arrest in MDI-cocktail differentiated mouse 3T3-L1 pre-adipocyte cells assessed as accumulation of cells at G1 phase at 3 to 5 uM incubated for 16 hrs by propidium iodide staining based flow cytometry analysis; format: functional; conditions: dose 3-5 µM
[23] = tested on: 3T3-L1; experiment: Induction of cell cycle arrest in MDI-cocktail differentiated mouse 3T3-L1 pre-adipocyte cells assessed as accumulation of cells at S phase at 3 to 5 uM incubated for 24 hrs by propidium iodide staining based flow cytometry analysis; format: functional; conditions: dose 3-5 µM
[24] = tested on: C3H 10T1/2; experiment: Anti-adipogenic activity in MDI-cocktail differentiated mouse C3H 10T1/2 cells assessed as reduction in adipogenic differentiation at 5 uM measured after 0 to 3 days by Oil Red O staining based microscopic analysis; format: functional, cell-based; conditions: time 0-3 day
[25] = tested on: 3T3-L1; experiment: Induction of proton leak during early phase in MDI-cocktail differentiated mouse 3T3-L1 pre-adipocyte cells 5 uM incubated for 72 hrs by Seahorse XFp flux analyzer; format: functional, cell-based
[26] = tested on: 3T3-L1; experiment: Inhibition of MDI-cocktail induced adipogenic differentiation in mouse 3T3-L1 pre-adipocyte cells assessed as increase in ACC phosphorylation at Ser79 residue by Western blot analysis; format: functional, cell-based; conditions: dose 0.5-5 µM
[27] = tested on: Syrian golden hamster; experiment: Anti-obesity activity in high-fat diet induced Syrian golden hamster model assessed as reduction in adipose hypertrophy at 50 mg/kg, po administered for 7 days by H and E staining based inverted microscopic analysis; format: functional, organism-based; conditions: Mesocricetus auratus, time 7.0 day
[28] = tested on: 3T3-L1; experiment: Upregulation of CV-ATP5A protein expression in mouse 3T3-L1 mature adipocytes at 1 to 5 uM incubated for 24 hrs by Western blot analysis; format: functional, cell-based; conditions: dose 1-5 µM
[29] = tested on: Syrian golden hamster; experiment: Anti-obesity activity in high-fat diet induced Syrian golden hamster model assessed as rescue of normal eWAT weight at 25 to 50 mg/kg, po administered for 7 days; format: functional, organism-based; conditions: Mesocricetus auratus, dose 25-50 mg/kg, time 7.0 day
[30] = tested on: 3T3-L1; experiment: Anti-adipogenic activity in MDI-cocktail differentiated mouse 3T3-L1 pre-adipocyte cells assessed as reduction in adipogenic differentiation at 5 uM measured after 0 to 3 days by Oil Red O staining based microscopic analysis; format: functional, cell-based; conditions: time 0-3 day
[31] = tested on: 3T3-L1; experiment: Induction of spare respiratory capacity during early phase in MDI-cocktail differentiated mouse 3T3-L1 pre-adipocyte cells 5 uM incubated for 72 hrs by Seahorse XFp flux analyzer; format: functional, cell-based
[32] = tested on: 3T3-L1; experiment: Upregulation of CIII-UQCRC2 protein expression in mouse 3T3-L1 mature adipocytes at 1 to 5 uM incubated for 24 hrs by Western blot analysis; format: functional, cell-based; conditions: dose 1-5 µM
[33] = tested on: Syrian golden hamster; experiment: Anti-obesity activity in high-fat diet induced Syrian golden hamster model assessed as reduction in weight gain at 50 mg/kg, po administered for 7 days and measured daily; format: functional, organism-based; conditions: Mesocricetus auratus, time 7.0 day

## Cc1ccc(-c2cnc(-c3ccc[n+](Cc4cccc(C)c4)c3)o2)cc1.[Br-]
[1]
  Activity: Active
[2]
  inhibition: Active
[3]
  Activity: Active
[4]; read-out: IC50
  IC50: 390 nM
[4]; read-out: pIC50 (converted)
  IC50: 390 nM
[5]
  inhibition: Active
[6]
  inhibition: Active
[7]
  Activity: Non-Toxic
[8]
  inhibition: Active
[9]
  Activity: Active
[10]
  Activity: Active
[11]
  Activity: Active
[12]
  inhibition: Active
[13]
  inhibition at 20 µM: > 70%
[14]
  Activity: Active
[15]
  inhibition: Active
[16]
  Activity: inactive
[17]
  Activity: Active
[18]
  Activity: Active
[19]
  Activity: Active
[20]
  Activity: Active
[21]
  Activity: Active
[22]
  Activity: Active
[23]
  Activity: Active
[24]
  Activity: Active
[25]
  Activity: Active
[26]
  inhibition: Dose-Dependent Effect
[27]
  Activity: Active
[28]
  Activity: Active
[29]
  Activity: Active
[30]
  Activity: Active
[31]
  Activity: Active
[32]
  Activity: Active
[33]
  Activity: Active
